In paper PMC10323144, “Garbage in, garbage out: how reliable training data improved a virtual screening approach against SARS-CoV-2 MPro” (Frontiers in Pharmacology, 2023):
Square brackets hold non-standard residues; d marks the D form. Peptide text beside a SMILES is read from it. * marks the point of attachment. NMeF = CN[CH](Cc1ccccc1)C(=O)O; NMeA = CN[CH](C)C(=O)O; Sar = CNCC(=O)O; tBu = CC(C)(C)*

target: SARS-CoV-2 MPro (Severe acute respiratory syndrome coronavirus 2, UniProt P0DTD1); assay: MPro activity assay (de-quenching of Edans fluorescence on cleavage of a Dabcyl/Edans peptide); assay type: biochemical; conditions: in-house acquired data, internal screening under standardized conditions (128 compounds)

Molecule | Class (MPro activity class)
Cc1cccc(Cl)c1NC(=O)c1ccccc1I [COV19028] | 0 (compounds with IC50 > 20 μM, percentage inhibition <80% at 20 µM or 50 μM, or percentage enzyme inhibition <50% at 10 µM were labelled as INACTIVE)
CCN(CC)c1ccc(-c2ccc(C(=O)OC)cc2)cc1 [Mal1] | 0 (compounds with IC50 > 20 μM, percentage inhibition <80% at 20 µM or 50 μM, or percentage enzyme inhibition <50% at 10 µM were labelled as INACTIVE)
COc1ccc(C2C(C(=O)c3ccc4c(c3)OCCO4)=C(O)C(=O)N2c2nc3ccc(C)cc3s2)cc1 (centres unmarked) [AD81] | 0 (compounds with IC50 > 20 μM, percentage inhibition <80% at 20 µM or 50 μM, or percentage enzyme inhibition <50% at 10 µM were labelled as INACTIVE)
Nc1cccc(C(=O)Nc2nc3c(s2)CC(NC(=O)c2cc(Br)c(Br)[nH]2)CC3)c1 (centres unmarked) [Cpd 46] | 0 (compounds with IC50 > 20 μM, percentage inhibition <80% at 20 µM or 50 μM, or percentage enzyme inhibition <50% at 10 µM were labelled as INACTIVE)
NC(=O)c1ccccc1I [COV19035] | 0 (compounds with IC50 > 20 μM, percentage inhibition <80% at 20 µM or 50 μM, or percentage enzyme inhibition <50% at 10 µM were labelled as INACTIVE)
C(=Cc1ccco1)C=Nn1cnnc1 [COV19287] | 0 (compounds with IC50 > 20 μM, percentage inhibition <80% at 20 µM or 50 μM, or percentage enzyme inhibition <50% at 10 µM were labelled as INACTIVE)
COc1cccc(OC)c1NC(=O)c1ccccc1I [COV19031] | 0 (compounds with IC50 > 20 μM, percentage inhibition <80% at 20 µM or 50 μM, or percentage enzyme inhibition <50% at 10 µM were labelled as INACTIVE)
COc1cc(C2C(C(=O)c3ccc4c(c3)OCCO4)=C(O)C(=O)N2c2nc3ccc(C)cc3s2)ccc1O (centres unmarked) [ADRMC152] | 0 (compounds with IC50 > 20 μM, percentage inhibition <80% at 20 µM or 50 μM, or percentage enzyme inhibition <50% at 10 µM were labelled as INACTIVE)
Cc1cc(Cl)cc(I)c1C(=O)NCc1ccccc1 [COV19039] | 0 (compounds with IC50 > 20 μM, percentage inhibition <80% at 20 µM or 50 μM, or percentage enzyme inhibition <50% at 10 µM were labelled as INACTIVE)
CC(C)(C)OC(=O)N1CCC(Oc2cc(C(=O)NCC(=O)O)ccc2NC(=O)c2cc(Br)c(Br)[nH]2)CC1 [UL-DBT26] | 0 (compounds with IC50 > 20 μM, percentage inhibition <80% at 20 µM or 50 μM, or percentage enzyme inhibition <50% at 10 µM were labelled as INACTIVE)
CC1C(=O)NC(Cc2ccccc2)C(=O)N(C)C(Cc2ccccc2)C(=O)NCC(=O)N1C (centres unmarked) [COV19080] (cyclo(G[NMeA]F[NMeF]); configuration not given here) | 0 (compounds with IC50 > 20 μM, percentage inhibition <80% at 20 µM or 50 μM, or percentage enzyme inhibition <50% at 10 µM were labelled as INACTIVE)
O=C(NCc1ccc(C(F)(F)F)cc1)c1ccccc1I [COV19032] | 0 (compounds with IC50 > 20 μM, percentage inhibition <80% at 20 µM or 50 μM, or percentage enzyme inhibition <50% at 10 µM were labelled as INACTIVE)
CC(OC(C)(C)C)C1NC(=O)CN(C)C(=O)C(Cc2ccccc2)NC(=O)CN(C)C1=O (centres unmarked) [vCOV194214] (cyclo([Sar]F[Sar]T(tBu)); configuration not given here) | 0 (compounds with IC50 > 20 μM, percentage inhibition <80% at 20 µM or 50 μM, or percentage enzyme inhibition <50% at 10 µM were labelled as INACTIVE)
CC(=O)OCC1OC(OC(C)=O)C(NC(=O)C(Cc2ccccc2)NC(=O)CN2CCCC(NC(=O)OC(C)(C)C)C2=O)C(OC(C)=O)C1OC(C)=O (centres unmarked) [COV19186] | 1 (Compounds with IC50 < 10 µM or with a percentage of enzyme inhibition >50% at 10 µM were labelled as ACTIVE)
O=c1c2ccccc2sn1-c1nc2cc(Sc3ccccc3)ccc2[nH]1 [COV19021] | 1 (Compounds with IC50 < 10 µM or with a percentage of enzyme inhibition >50% at 10 µM were labelled as ACTIVE)
O=C1C(Oc2ccccc2)C(c2ccc(B(O)O)cc2)N1Cc1ccccc1 (centres unmarked) [Mal3] | 0 (compounds with IC50 > 20 μM, percentage inhibition <80% at 20 µM or 50 μM, or percentage enzyme inhibition <50% at 10 µM were labelled as INACTIVE)
COc1ccc(C2C(C(=O)c3ccc4c(c3)OCCO4)=C(O)C(=O)N2c2nc3ccc(Cl)cc3s2)cc1OC (centres unmarked) [ADRMC157] | 0 (compounds with IC50 > 20 μM, percentage inhibition <80% at 20 µM or 50 μM, or percentage enzyme inhibition <50% at 10 µM were labelled as INACTIVE)
O=c1c2ccccc2sn1-c1ccc2ccccc2c1 [COV19013] | 1 (Compounds with IC50 < 10 µM or with a percentage of enzyme inhibition >50% at 10 µM were labelled as ACTIVE)
O=C(Nc1cccc2ccccc12)c1ccccc1I [COV19033] | 0 (compounds with IC50 > 20 μM, percentage inhibition <80% at 20 µM or 50 μM, or percentage enzyme inhibition <50% at 10 µM were labelled as INACTIVE)
O=c1c2ccccc2sn1Cc1ccc(C(F)(F)F)cc1 [COV19004] | 1 (Compounds with IC50 < 10 µM or with a percentage of enzyme inhibition >50% at 10 µM were labelled as ACTIVE)
Cc1cccc2c(=O)n(-c3ccccc3)sc12 [COV19017] | 0 (compounds with IC50 > 20 μM, percentage inhibition <80% at 20 µM or 50 μM, or percentage enzyme inhibition <50% at 10 µM were labelled as INACTIVE)
Cc1cccc2c(=O)[nH]sc12 [COV19002] | 0 (compounds with IC50 > 20 μM, percentage inhibition <80% at 20 µM or 50 μM, or percentage enzyme inhibition <50% at 10 µM were labelled as INACTIVE)
COc1ccc(Cn2sc3ccccc3c2=O)cc1 [COV19009] | 1 (Compounds with IC50 < 10 µM or with a percentage of enzyme inhibition >50% at 10 µM were labelled as ACTIVE)
CC(=NNC(=S)Nc1ccccc1)c1cc2ccccc2oc1=O [COV19139] | 0 (compounds with IC50 > 20 μM, percentage inhibition <80% at 20 µM or 50 μM, or percentage enzyme inhibition <50% at 10 µM were labelled as INACTIVE)
O=C(C1=C(O)C(=O)N(c2nc3ccc(Cl)cc3s2)C1c1ccc(O)cc1)c1ccc2c(c1)OCCO2 (centres unmarked) [AD83] | 0 (compounds with IC50 > 20 μM, percentage inhibition <80% at 20 µM or 50 μM, or percentage enzyme inhibition <50% at 10 µM were labelled as INACTIVE)
Nc1ncc(C(=O)N(Cc2ccccc2)Cc2ccccc2)o1 [ZVR-102] | 0 (compounds with IC50 > 20 μM, percentage inhibition <80% at 20 µM or 50 μM, or percentage enzyme inhibition <50% at 10 µM were labelled as INACTIVE)
O=C(Nc1nc2c(s1)CC(NC(=O)c1cc(Br)c(Br)[nH]1)CC2)c1c[nH]cn1 (centres unmarked) [Cpd 47] | 0 (compounds with IC50 > 20 μM, percentage inhibition <80% at 20 µM or 50 μM, or percentage enzyme inhibition <50% at 10 µM were labelled as INACTIVE)

same assay, conditions: read-out: MPro activity (%)

Molecule | activity at 25 µM [%]
O=S(=O)(O)c1ccc(/C=N/N=c2\scc(-c3cs/c(=N\N=C\c4ccc(S(=O)(=O)O)o4)n3-c3ccccc3)n2-c2ccccc2)o1 [5a] | 65.6 ± 10.9
O=C(OC[C@H]1O[C@@H](OC(=O)c2ccccc2)[C@H](OC(=O)c2ccccc2)[C@@H](OC(=O)c2ccccc2)[C@@H]1OC(=O)c1ccccc1)c1ccccc1 [8a] | 67 ± 2.5
[O-][S+](/C=C/c1ccc2nonc2c1)c1ccccc1 (centres unmarked) [16d] | 71.9 ± 11
O=[N+]([O-])c1ccc(CS(=O)(=O)/C=C/c2ccc3nonc3c2)cc1 [17d] | 116 ± 15
[O-][n+]1onc2ccc(/C=C\Sc3ccc(F)cc3)cc21 [9d] | 81.4 ± 21.5
[O-][n+]1onc2cc(Cl)cc(Cl)c21 [1d] | 89.3 ± 1.9

same assay, conditions: read-out: MPro inhibition

Molecule | inhibition at 25 µM [%]
O=S(=O)(Nc1nc2cc(Cl)c(Oc3cccc(Cl)c3Cl)cc2[nH]1)c1ccc(Br)cc1 [32d] | 25
O=C(/C=C/c1ccc2ccccc2c1)c1ccc2ccccc2c1O [26d] | 45

tested on: MPro; assay: not given; conditions: compiled from peer-reviewed sources (287 compounds) ref the 18 original articles; cited from earlier work

Molecule | Class (MPro activity class)
O=C(O)CNC(=O)c1ncc(-c2cccc(Cl)c2)cc1O | 0 (compounds with IC50 > 20 μM, percentage inhibition <80% at 20 µM or 50 μM, or percentage enzyme inhibition <50% at 10 µM were labelled as INACTIVE)
CCC[C@H](NC(=O)[C@@H]1[C@H]2CCC[C@H]2CN1C(=O)[C@@H](NC(=O)[C@@H](NC(=O)c1cnccn1)C1CCCCC1)C(C)(C)C)C(=O)C(=O)NC1CC1 [Telaprevir] | 0 (compounds with IC50 > 20 μM, percentage inhibition <80% at 20 µM or 50 μM, or percentage enzyme inhibition <50% at 10 µM were labelled as INACTIVE)
Disulfiram | 1 (Compounds with IC50 < 10 µM or with a percentage of enzyme inhibition >50% at 10 µM were labelled as ACTIVE)
CC(=O)c1cc([N+](=O)[O-])c(Sc2ccc(F)cc2F)s1 [P22077] | 0 (compounds with IC50 > 20 μM, percentage inhibition <80% at 20 µM or 50 μM, or percentage enzyme inhibition <50% at 10 µM were labelled as INACTIVE)
N#Cc1ccccc1-c1cc(-c2cccc(Cl)c2)c(=O)n(-c2cccnc2)c1 [compound 2] | 1 (Compounds with IC50 < 10 µM or with a percentage of enzyme inhibition >50% at 10 µM were labelled as ACTIVE)
cangrelor | 0 (compounds with IC50 > 20 μM, percentage inhibition <80% at 20 µM or 50 μM, or percentage enzyme inhibition <50% at 10 µM were labelled as INACTIVE)
C[C@@H]1CCN(C(=O)CC#N)C[C@@H]1N(C)c1ncnc2[nH]ccc12 [Tofacitinib] | 0 (compounds with IC50 > 20 μM, percentage inhibition <80% at 20 µM or 50 μM, or percentage enzyme inhibition <50% at 10 µM were labelled as INACTIVE)
COc1ccc(C2CC(c3ccccc3)=NN2C(=O)CCl)cc1OC (centres unmarked) [MED-COV-4280ac29-30] | 1 (Compounds with IC50 < 10 µM or with a percentage of enzyme inhibition >50% at 10 µM were labelled as ACTIVE)
Cn1c(=O)cc(N2CCC[C@@H](N)C2)n(Cc2ccccc2C#N)c1=O [Alogliptin] | 0 (compounds with IC50 > 20 μM, percentage inhibition <80% at 20 µM or 50 μM, or percentage enzyme inhibition <50% at 10 µM were labelled as INACTIVE)
